Data: patent publication US5618948A, “Process for preparing an enantiomer of a carbazole derivative” (SmithKline Beecham p.l.c., priority 1995, dated 1997)
pEC50: −log10 of the molar value.

Target: T1, 5-HT1 -like Receptor (Oryctolagus cuniculus, UniProt P49144)
T1 construct: the basilar artery removed with the aid of a dissecting microscope; from tissue; host or cells: rabbit basilar artery ring segments, endothelium removed
Test: 5-HT1-like Receptor Screen, rabbit isolated basilar artery (isometric tension, cumulative concentration-effect curves)
Type: cell-based
Settings: endothelium removed, in presence of ascorbate, indomethacin, cocaine, ketanserin and prazosin
Experimental: 5-HT1 -like Receptor Screen
Experiments were performed in intracranial arteries from rabbit isolated basilar artery in a similar method to that described previously (Parsons and Whalley, 1989, Eur J Pharmacol 174, 189-196.)
In brief, rabbits were killed by overdose with anaesthetic (sodium pentobarbitone). The whole brain was quickly removed and immersed in ice cold modified Kreb's solution and the basilar artery removed with the aid of a dissecting microscope. The Krebs solution was of the following composition (mM) Na^+ (120); K^+ (5); Ca^2+ (2.25)Mg^2+(0.5); Cl^- (98.5); SO4^2- (1); ETDA (0.04), equilibrated with 95% O2 /5% CO2. The endothelium was removed by a gentle rubbing of the lumen with a fine metal wire. Arteries were then cut into ring segments (ca 4-5 mm wide) and set up for recording of isometric tension in 50 ml tissue baths in modified Krebs solution with the additional supplement of (mM); […] (20); fumarate (10); pyruvate (5); L-glutamate (5) and glucose (10). The arteries were then placed under a resting force of 3-4 mN maintained at 37° C. and the solution bubbled with 95% O2 /5% CO2.
After tests for initial reactivity with 90 mM KCl depolarising solution and for lack of acetylcholine-induced relaxation of 5-HT ([…]) precontraction, cumulative concentration-effect curves ([…]) to 5-HT were constructed in the presence of ascorbate […], cocaine […], indomethacin […], ketanserin […] and prazosin […].
Following a 45-60 min wash period, cumulative concentration-effect curves to the test compounds or 5-HT (as a time match control) were constructed in the presence of ascorbate, indomethacin, cocaine, ketanserin and prazosin.
R-(+)-6-carboxamido-3-N-methylamino-1,2,3,4-tetrahydrocarbazole; (compound A)
S-(-)-6-carboxamido-3-N-methylamino-1,2,3,4-tetrahydrocarbazole; (compound B)
R-(+)-6-carboxamido-3-N-ethylamino-1,2,3,4-tetrahydrocarbazole; (compound C)

T1 sequence (P49144 whole entry): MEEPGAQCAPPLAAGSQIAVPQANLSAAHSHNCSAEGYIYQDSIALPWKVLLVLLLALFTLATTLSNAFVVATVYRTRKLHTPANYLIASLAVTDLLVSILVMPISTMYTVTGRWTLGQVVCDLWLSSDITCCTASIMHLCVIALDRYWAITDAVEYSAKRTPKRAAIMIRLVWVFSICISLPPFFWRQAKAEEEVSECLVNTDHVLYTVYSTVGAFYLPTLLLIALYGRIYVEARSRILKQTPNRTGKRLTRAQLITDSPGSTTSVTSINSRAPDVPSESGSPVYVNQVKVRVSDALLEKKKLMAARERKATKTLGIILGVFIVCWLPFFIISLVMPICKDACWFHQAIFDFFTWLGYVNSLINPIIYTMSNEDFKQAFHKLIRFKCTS

pEC50 | Structure (SMILES)
< 5.70 | CN[C@H]1CCc2[nH]c3ccc(C(N)=O)cc3c2C1 [Compound B, S-(-)-6-carboxamido-3-N-methylamino-1,2,3,4-tetrahydrocarbazole]
7.52 | CN[C@@H]1CCc2[nH]c3ccc(C(N)=O)cc3c2C1 [Compound A, R-(+)-6-carboxamido-3-N-methylamino-1,2,3,4-tetrahydrocarbazole]

Structure (SMILES) | pEC50
CCN[C@@H]1CCc2[nH]c3ccc(C(N)=O)cc3c2C1 [Compound C, R-(+)-6-carboxamido-3-N-ethylamino-1,2,3,4-tetrahydrocarbazole] | 6.80
